Laboratory results: US8815937B2, “Lipoyl compounds and their use for treating ischemic injury” (Ischemix LLC, priority 2010, dated 2014)

Assays:
[1] = test system: rat model of MI/AR injury (myocardial ischemia-reperfusion injury); test: Rat model of MI/AR injury (LCA ligation, myocardial ischemia-reperfusion); format: in vivo; details: for Reduction in Cardiac injury: LCA rat model, procedure of Example 2; for MI/AR Reduction (%): male Sprague-Dawley rats, compound given 15 minutes prior to ligation, intravenous, doses ranged 1-20 mg/kg, 24 hours after reperfusion, relative to vehicle controls
From the text: A rat model of MI/AR injury was used as an in vivo screen to determine if the compounds of Tables 1-5 were cardio-protective (e.g., against myocardial ischemia-reperfusion injury). This model is analogous to the ischemia-reperfusion injury observed in cardiac patients following coronary occlusions and cardiac surgery procedures, such as coronary artery bypass grafting (CABG) (Matsui, T., Tao, J., del Monte, F., Lee, K.-H. et al., Akt Activation Preserves Cardiac Function and Prevents Injury After Transient Cardiac Ischemia In vivo, Circulation 2001, 104:330, the teachings of which are incorporated herein by reference in their entirety).
The circumflex branch of the left coronary artery (LCA) was ligated temporarily to induce regional ischemia in the left ventricular mass, followed by the injection of fluorescent microspheres to delineate the ischemic region. 15 minutes prior to ligation (pre-occlusion, pre-ischemic episode), a compound from Tables 1-5 was administered to the animals. Doses of the compounds listed in Tables 1-5 ranged from 1-20 mg/kg. The animals were sacrificed about 24 hours after reperfusion and the hearts were excised, sectioned and stained with triphenyltetrazolium. The direct impact of the pharmacologic intervention was determined by measuring the myocardial infarct area (MI), the ischemic area at risk (AR) and the left ventricular area (LV). The reduction of MI over the AR (MI/AR ratio) was used as the primary measure of drug efficacy relative to vehicle controls.
Male Sprague-Dawley rats between 300 and 350 g were used for these experiments. Anesthesia was induced with 3-4% isoflurane in an induction chamber. After induction, anesthesia was maintained at a surgical plane with 1.5-2.0% isoflurane, administered by a Rodent Ventilator through a 16-gauge angiocatheter introduced orally into the trachea. The ventilator was set at 2.5 cc at a rate of 60-65 breaths per minute to maintain ventilation during surgery. The core temperature of the animal was monitored and maintained at 37° C. using a rectal probe and a heating lamp attached to a temperature controller.
A left anterior thoracotomy was performed and the heart was exposed using a vertical pericardotomy. The circumflex branch of the left coronary artery (LCx) was ligated approximately 4 mm from the aorta using a cardiovascular 7.0 monofilament suture on an 11 mm needle to induce ischemia in the left ventricle.
Fluorescent microspheres (300 μL) were injected into the left ventricular cavity 10-20 minutes after the ligation to delineate the ischemic area. The suture was removed 30 minutes after ligation to reperfuse the ischemic area and the ischemic area was checked for reperfusion.
The chest was then closed in layers using absorbable suture (Dexon 5-0) for the muscle layers and monofilament Nylon 5-0 suture was used to close the cutaneous layer. The animals were allowed to recover, then were returned to the colony.
Twenty-four hours after reperfusion, anesthesia was induced using ketamine hydrochloride and the chest was opened. The animals were sacrificed with 15% potassium chloride aqueous solution (w/v) injected into the LV cavity to arrest the heart in diastole. The heart was excised distal to the aortic valve and washed with saline to remove the blood. Sagittal slices of the heart were obtained between the base of the ventricle and the apex. Five slices of heart tissue were obtained, each 2 mm thick. The slices were immersed in a 1% 2,3,5-triphenyl-2H-tetrazolium chloride (TTC) in saline solution and then stored in the dark for 30 minutes to stain.
Images of the slices were obtained under bright field (to observe the TTC staining) and under fluorescence (to observe the microspheres). The area at risk was determined by the absence of microspheres and the infarct area was determined by the absence of TTC staining.

[2] = test system: PAC rat model of ischemia-induced renal injury; test: Partial aortic clamping (PAC) rat model of ischemia-induced renal injury; format: in vivo; details: for Reduction of SCr vs. control: serum creatinine 24 hours post-surgery; for serum creatinine concentrations relative to the control animals (in words): administered intravenously
From the text: A partial aortic clamping (PAC) rat model of ischemia-induced renal injury was used as an in vivo screen to determine if RLip-EA-OH (Entry 1), RLip-Cya-OH (Entry 10), RLip-Tau (Entry 13), and RLip-aminoethylphosphonic acid (Entry 15) were renal-protective (e.g., against renal ischemia-reperfusion injury). This model simulates ischemia-reperfusion injury observed in renal patients following ischemia-induced renal failure (Molitoris, B. A., Dagher, P. C., Sandoval, R. M., Campos, S. B., Ashush, H., Fridman, E., Brafman, A. Faerman, A., Atkinson, S. J., Thompson, J. D., Kalinski, H., Skaliter, R., Erlich, S., Feinstein, E. “siRNA Targeted to p53 Attenuates Ischemic and Cisplatin-Induced Acute Kidney Injury.” J Am Soc Nephrol, 2009, vol. 20, 1754-1764, the teachings of which are incorporated herein by reference to their entirety). Serum creatinine concentrations (SCr) typically rise due to renal ischemia and effective treatment should show a reduction in serum creatinine concentrations.
The abdominal aorta just below the renal arteries was isolated and temporarily ligated to induce regional ischemia using an aortic clamp. An initial blood sample was drawn at study initiation for baseline creatinine measurement and at 24 hours post-surgery for functional evaluation of the severity of kidney injury. The animals were sacrificed about 24 hours after reperfusion.
Male Sprague-Dawley rats between 200 to 250 g were used for these experiments. Anesthesia was induced with 5% halothane and maintained with 1-1.5% halothane in oxygen-enriched air via a face mask. The rats were maintained on a warming blanket throughout the procedure to maintain body temperature at 37° C. After shaving the abdomen of the rat, a midline incision was made through the skin and musculature to expose the abdominal cavity to quantify the aortic blood flow (ABF).
Aortic clamps comprised of two 4-mm in length polyethylene tubes (PE-100, 0.86-mm diameter) were then placed around the aorta to induce renal ischemia. One clamp was placed around the aorta and the other was placed to exert variable tension via a 10-in. 3.0 silk suture. The silk thread was then tied and the tension on the two ends of the thread increased until there was a 90% reduction of initial (ABF) rate measured on the ultrasonic probe reader. A 10% baseline blood flow was maintained for a period of 30 minutes.
RLip-EA-OH (Entry 1) at 10 mg/kg; RLip-Cya-OH (Entry 10) at 3 mg/kg; RLip-Tau (Entry 13) at 3 mg/kg; and RLip-aminoethylphosphonic acid at 10 mg/kg, 3 mg/kg, and 1 mg/kg were administered intravenously via the femoral vein as a bolus dose 15 minutes prior to ischemia. A 0.15-mL venous blood sample was drawn at study initiation for baseline creatinine measurement and at 24 hours postsurgery for functional evaluation of the severity of kidney injury. Serum creatinine concentrations were then measured on a Creatinine Analyzer 2. The efficacy of RLip-EA-OH and RLip-Tau were measured against the results of vehicle-treated animals in the blinded studies. A 2-tail t-test was used to determine differences between treatments.

[3] = 10 mg/kg iv bolus 15 minutes prior to ischemia
[4] = 3 mg/kg iv bolus 15 minutes prior to ischemia

Structure (SMILES) | MI/AR Reduction (%) [1] [%] | other results
CC(NC(=O)C(CCC(=O)O)NC(=O)CCCCC1CCSS1)C(=O)O [Entry 1, N-(R)-lipoyl-L-glutamyl-L-alanine] | 31 | Reduction in Cardiac injury ([1]; dose group 10 mg/kg): 33%; Reduction of SCr vs. control [2, 3]: 39.5%; serum creatinine concentrations relative to the control animals (in words) [2]: effectively reduced serum creatinine concentrations
O=C(O)CNC(=O)C(CC(=O)O)NC(=O)CCCCC1CCSS1 [Entry 2, N-lipoyl-L-aspartylglycine] | 28 | 
CC(NC(=O)C(Cc1ccc(O)cc1)NC(=O)CCCCC1CCSS1)C(=O)O [Entry 3, N-(R)-lipoyl-L-tyrosinyl-L-alanine] | 31 | 
O=C(O)CCC(NC(=O)CCCCC1CCSS1)C(=O)NCCS(=O)(=O)O [Entry 4, N-(R)-lipoyl-L-glutamyltaurine] | 33 | 
CC(NC(=O)CCCCC1CCSS1)C(=O)NC(CCC(=O)O)C(=O)O [Entry 5, N-(R)-lipoyl-L-alanyl-L-glutamic acid] | 24 | 
O=C(CCCCC1CCSS1)NC(Cc1ccc(C(=O)O)cc1)C(=O)O [Entry 6, N-(R)-lipoyl-L-4-carboxyphenylalanine] | 26 | 
O=C(CCCCC1CCSS1)NC(CF)C(=O)O [Entry 7, N-(R)-lipoyl-fluoroalanine] | 10 | 
O=C(CCCCC1CCSS1)NC(Cc1ccc(O)cc1)C(=O)O [Entry 8, N-(R)-lipoyl-L-tyrosine] | 29 | 
O=C(O)CCC(NC(=O)CCCCC1CCSS1)C(=O)O [Entry 9, N-(R)-lipoyl-L-glutamic acid] | 33 | 
O=C(CCCCC1CCSS1)NC(CS(=O)(=O)O)C(=O)O [Entry 10, N-(R)-lipoyl-L-cysteic acid] | 30 | Reduction in Cardiac injury ([1]; dose group 3 mg/kg): 30%; Reduction of SCr vs. control [2, 4]: 39.5%; serum creatinine concentrations relative to the control animals (in words) [2]: effectively reduced serum creatinine concentrations
O=C(O)CN(CC(=O)O)C(=O)CCCC[C@@H]1CCSS1 [Entry 11, N-(R)-lipoyliminodiacetic acid] | 21 | 
O=C(O)CCNC(=O)CCCC[C@@H]1CCSS1 [Entry 12, N-(R)-lipoyl-β-alanine] | 39 | 
O=C(CCCC[C@@H]1CCSS1)NCCS(=O)(=O)O [Entry 13, N-(R)-lipoyl-taurine] |  | Reduction in Cardiac injury ([1]; dose group 3 mg/kg): 50%; Reduction of SCr vs. control [2, 4]: 39.5%; serum creatinine concentrations relative to the control animals (in words) [2]: effectively reduced serum creatinine concentrations
O=C(CCCCC1CCSS1)NCCOS(=O)(=O)O [Entry 14, N-(R)-lipoyl-aminoethyl hydrogensulfate] | 30 | 
O=C(CCCC[C@@H]1CCSS1)NCCP(=O)(O)O [Entry 15, N-(R)-lipoyl-aminoethylphosphonic acid] | 53 | Reduction in Cardiac injury ([1]; dose group 1 mg/kg): 30%; Reduction in Cardiac injury ([1]; dose group 3 mg/kg): 50%; Reduction in Cardiac injury ([1]; dose group 10 mg/kg): 32%; Reduction of SCr vs. control ([2]; 1 mg/kg iv bolus 15 minutes prior to ischemia): 28.6%; Reduction of SCr vs. control [2, 4]: 28.6%; Reduction of SCr vs. control [2, 3]: 76.0%; serum creatinine concentrations relative to the control animals (in words) [2]: effectively reduced serum creatinine concentrations
O=C(CCCCC1CCSS1)NCCOP(=O)(O)O [Entry 16, N-(R)-lipoyl-aminoethyl dihydrogenphosphate] | 47 | 
O=C(CCCC[C@@H]1CCSS1)Nc1ccc(C(=O)O)cc1 [Entry 17, N-(R)-lipoyl-para-aminobenzoic acid] | 22 | 
O=C(CCCC[C@@H]1CCSS1)Nc1cccc(S(=O)(=O)O)c1 [Entry 18, N-(R)-lipoyl-meta-aminobenzene sulfonic acid] | 33 | 
O=C(CCCC[C@@H]1CCSS1)Nc1ccc(S(=O)(=O)O)cc1 [Entry 19, N-(R)-lipoyl-para-aminobenzene sulfonic acid] | 44 | 
